Results on three molecules are retold here after US11208412B2 (DAEGU-GYEONGBUK MEDICAL INNOVATION FOUNDATION, priority 2017, dated 2021).

What all share (test): Kinase selectivity, DiscoverX scanMAX Kinase assay panel (% control)
Format in all cases: binding

In experiment [1] the target is T1, kinases of the scanMAX Kinase assay panel (Homo sapiens, UniProt O00141).
T1 construct: purchased DiscoverX Co. (contract measurement) scanMAX Kinase assay panel
T1 sequence (O00141 1-431): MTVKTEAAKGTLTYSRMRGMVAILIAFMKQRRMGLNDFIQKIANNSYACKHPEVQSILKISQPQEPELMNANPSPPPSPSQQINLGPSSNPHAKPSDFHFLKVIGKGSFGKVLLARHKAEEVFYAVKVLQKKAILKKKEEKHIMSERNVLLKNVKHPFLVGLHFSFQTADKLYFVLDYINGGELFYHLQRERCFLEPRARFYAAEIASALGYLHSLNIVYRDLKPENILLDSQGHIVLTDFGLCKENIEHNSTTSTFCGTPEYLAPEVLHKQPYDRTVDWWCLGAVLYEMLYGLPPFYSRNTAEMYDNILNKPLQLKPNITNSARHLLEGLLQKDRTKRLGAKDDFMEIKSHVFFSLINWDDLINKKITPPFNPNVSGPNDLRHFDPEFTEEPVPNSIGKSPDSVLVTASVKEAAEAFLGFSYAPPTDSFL
The following applies: kinase SGK; 1 uM in DMSO. The procedure, abridged: (§1)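 Percent of control computed as (compound − positive control)/(negative control − positive control) × 100, DMSO defining 100% and positive control 0%. Each panel kinase exposed to 1 uM compound; values under 35% taken to mean the compound acts on that kinase.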

Experiment [2] has as its target T2, kinases of the scanMAX Kinase assay panel (Homo sapiens, UniProt O76039).
T2 construct: purchased DiscoverX Co. (contract measurement) scanMAX Kinase assay panel
T2 sequence (O76039 1-960): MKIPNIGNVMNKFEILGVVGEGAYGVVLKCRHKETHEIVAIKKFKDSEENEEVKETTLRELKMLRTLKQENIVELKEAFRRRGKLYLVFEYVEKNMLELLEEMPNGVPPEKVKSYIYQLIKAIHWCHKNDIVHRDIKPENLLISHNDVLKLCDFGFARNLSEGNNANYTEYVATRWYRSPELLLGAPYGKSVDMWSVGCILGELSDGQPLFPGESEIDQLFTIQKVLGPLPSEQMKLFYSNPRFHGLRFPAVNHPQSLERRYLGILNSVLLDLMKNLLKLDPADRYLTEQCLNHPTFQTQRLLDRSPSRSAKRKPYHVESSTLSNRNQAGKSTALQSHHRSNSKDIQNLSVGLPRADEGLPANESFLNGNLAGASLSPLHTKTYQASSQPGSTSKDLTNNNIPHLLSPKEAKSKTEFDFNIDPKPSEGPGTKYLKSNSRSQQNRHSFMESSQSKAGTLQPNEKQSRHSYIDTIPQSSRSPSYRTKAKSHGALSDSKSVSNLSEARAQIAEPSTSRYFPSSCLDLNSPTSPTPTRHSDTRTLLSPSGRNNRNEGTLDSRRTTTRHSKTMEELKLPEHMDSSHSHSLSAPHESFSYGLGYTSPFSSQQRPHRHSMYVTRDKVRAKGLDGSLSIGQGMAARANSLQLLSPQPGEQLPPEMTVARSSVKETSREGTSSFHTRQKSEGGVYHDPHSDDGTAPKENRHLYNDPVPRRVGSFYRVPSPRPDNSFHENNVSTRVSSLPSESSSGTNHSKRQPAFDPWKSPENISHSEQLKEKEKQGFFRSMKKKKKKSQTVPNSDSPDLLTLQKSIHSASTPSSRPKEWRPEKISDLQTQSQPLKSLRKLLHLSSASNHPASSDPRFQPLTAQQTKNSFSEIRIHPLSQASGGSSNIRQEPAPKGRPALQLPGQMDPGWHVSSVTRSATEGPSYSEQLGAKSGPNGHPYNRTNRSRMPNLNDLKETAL
The settings on record: CDKL5; 1 uM. The procedure, abridged:
as §1

The target of experiment [3] is T3, kinases of the scanMAX Kinase assay panel (Homo sapiens, UniProt Q9H2G2).
T3 construct: purchased DiscoverX Co. (contract measurement) scanMAX Kinase assay panel
The settings on record: kinase SLK; 1 uM in DMSO. The procedure, abridged: as §1

T3 sequence (Q9H2G2 whole entry): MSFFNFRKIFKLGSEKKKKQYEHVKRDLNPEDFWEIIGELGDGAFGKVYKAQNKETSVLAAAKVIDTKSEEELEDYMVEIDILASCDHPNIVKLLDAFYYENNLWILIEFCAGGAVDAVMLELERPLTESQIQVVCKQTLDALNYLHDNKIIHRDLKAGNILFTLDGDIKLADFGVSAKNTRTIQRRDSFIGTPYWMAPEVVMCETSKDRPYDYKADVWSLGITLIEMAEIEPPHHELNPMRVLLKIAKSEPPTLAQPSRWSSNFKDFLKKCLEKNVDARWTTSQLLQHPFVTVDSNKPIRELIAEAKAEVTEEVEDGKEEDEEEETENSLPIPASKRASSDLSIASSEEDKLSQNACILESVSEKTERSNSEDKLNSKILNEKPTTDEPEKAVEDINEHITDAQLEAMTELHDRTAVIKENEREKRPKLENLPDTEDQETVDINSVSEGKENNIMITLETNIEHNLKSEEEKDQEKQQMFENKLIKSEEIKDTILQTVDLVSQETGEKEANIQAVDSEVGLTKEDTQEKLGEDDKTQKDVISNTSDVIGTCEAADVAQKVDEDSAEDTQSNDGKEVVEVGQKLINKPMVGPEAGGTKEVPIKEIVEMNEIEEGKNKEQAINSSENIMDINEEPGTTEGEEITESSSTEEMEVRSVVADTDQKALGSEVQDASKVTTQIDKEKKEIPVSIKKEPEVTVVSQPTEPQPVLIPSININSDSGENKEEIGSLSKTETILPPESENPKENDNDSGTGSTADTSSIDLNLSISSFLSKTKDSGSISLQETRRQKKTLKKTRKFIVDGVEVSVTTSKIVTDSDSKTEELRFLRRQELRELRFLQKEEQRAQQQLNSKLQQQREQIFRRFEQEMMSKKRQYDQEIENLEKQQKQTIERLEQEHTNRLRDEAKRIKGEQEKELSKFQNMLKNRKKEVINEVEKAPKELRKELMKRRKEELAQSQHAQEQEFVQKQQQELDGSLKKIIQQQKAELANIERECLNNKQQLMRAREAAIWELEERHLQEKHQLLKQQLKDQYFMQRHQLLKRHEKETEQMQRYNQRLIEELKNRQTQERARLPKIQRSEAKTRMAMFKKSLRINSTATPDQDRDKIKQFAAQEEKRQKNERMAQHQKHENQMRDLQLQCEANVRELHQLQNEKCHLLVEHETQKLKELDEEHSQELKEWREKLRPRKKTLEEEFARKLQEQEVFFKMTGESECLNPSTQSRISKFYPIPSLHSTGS

As to `CNc1nc(Nc2ccc(C(=O)N3CCOCC3)cc2OC)nc2[nH]cc(C#N)c12` [Example 1, 2-((2-methoxy-4-(morpholine-4-carbonyl)phenyl)amino)-4-(methylamino)-7H-pyrrolo[2,3-d]pyrimidine-5-carbonitrile], the remaining binding at 1 µM worked out at 48% in experiment [1], 76% in experiment [2] and 100% in experiment [3].
The corresponding values for `CC1(Nc2nc(Nc3cnn([C@H]4CCN(C5COC5)C[C@@H]4F)c3Cl)nc3[nH]cc(C#N)c23)CC1` [Example 52, 2-((5-chloro-1-((3S,4S)-3-fluoro-1-(oxetane-3-yl)piperidine-4-yl)-1H-pyrazole-4-yl)amino)((1-methylcyclopropyl)amino)-7H-pyrrolo[2,3-d]pyrimidine-5-carbonitrile] are 18%, 100% and 13%.
On to `CCNc1nc(Nc2ccc(C(=O)N3CCC(N4CCOCC4)CC3)cc2OC)nc2[nH]cc(C(F)(F)F)c12` [Example 104, (4-((4-(ethylamino)-5-(trifluoromethyl)-7H-pyrrolo[2,3-d]pyrimidine-2-yl)amino)-3-methoxyphenyl)(4-morpholinopiperidine-1-yl)methanone], for which the remaining binding at 1 µM in experiment [1] amounted to 100%; in experiment [2], 100%; in experiment [3], 97%.
